In patent publication US20010046504A1, “CYCLOPHOSPHAMIDE FILM-COATED TABLETS” (priority 1998, published 2001):

Assay type: physicochemical
Protocol: Investigations on the Compatibility of Cyclophosphamide with Various Tableting Auxiliaries […] The pressed tablets were stored at 31° C. for 6 months. The decomposition of the active compound was carried out [sic] by means of chloride determination.

## Preswollen starch [Auxiliary 9]
  Stability of cyclophosphamide in the presence of auxiliary (in words): somewhat indifferent
